Assays:
Format in all cases: in vivo
[1] = test system: Amaranthus retoflexus (AMARE); assay: Pre-emergence herbicidal test; details: 1000 g/ha, evaluated after 13 days
[2] = test system: Setaria faberi (SETFA); assay: Pre-emergence herbicidal test; details: 1000 g/ha, evaluated after 13 days
[3] = test system: Echinochloa crus-galli (ECHCG); assay: Pre-emergence herbicidal test; details: 1000 g/ha, evaluated after 13 days
[4] = test system: Ipomoea hederacea (IPOHE); assay: Pre-emergence herbicidal test; details: 1000 g/ha, evaluated after 13 days
[5] = test system: Abutilon theophrasti (ABUTH); assay: Pre-emergence herbicidal test; details: 1000 g/ha, evaluated after 13 days
[6] = test system: Zea mays (ZEAMX); assay: Pre-emergence herbicidal test; details: 1000 g/ha, evaluated after 13 days
[7] = test system: Abutilon theophrasti (ABUTH); assay: Post-emergence herbicidal test; details: 1000 g/ha unless otherwise stated, evaluated after 13 days
Experimental: (§1) Seeds of a variety of test species are sown in standard soil in pots (Amaranthus retoflexus (AMARE), Solanum nigrum (SOLNI), Setaria faberi (SETFA), Lolium perenne (LOLPE), Echinochloa crus-galli (ECHCG), Ipomoea hederacea (IPOHE), Abutilon theophrasti (ABUTH), Zea mays (ZEAMX)). After 8 days cultivation under controlled conditions in a glasshouse (at 24° C./16° C., day/night; 14 hours light; 65% humidity), the plants are sprayed with an aqueous spray solution derived from the formulation of the technical active ingredient in acetone/water (50:50) solution containing 0.5% Tween 20 (polyoxyethelyene sorbitan monolaurate, CAS RN 9005-64-5). Compounds are applied at 1000 g/ha unless otherwise stated. The test plants are then grown in a glasshouse under controlled conditions in a glasshouse (at 24° C./16° C., day/night; 14 hours light; 65% humidity) and watered twice daily. After 13 days the test is evaluated for the percentage damage caused to the plant. The biological activities are shown in the following table on a five-point scale (5=81-100%; 4=61-80%; 3=41-60%; 2=21-40%; 1=10-20%; 0=0%;−=not tested).

[8] = test system: Amaranthus retoflexus (AMARE); assay: Post-emergence herbicidal test; details: 1000 g/ha unless otherwise stated, evaluated after 13 days
Experimental: as §1

[9] = test system: Echinochloa crus-galli (ECHCG); assay: Post-emergence herbicidal test; details: 1000 g/ha unless otherwise stated, evaluated after 13 days
Experimental: as §1

[10] = test system: Ipomoea hederacea (IPOHE); assay: Post-emergence herbicidal test; details: 1000 g/ha unless otherwise stated, evaluated after 13 days
Experimental: as §1

[11] = test system: Setaria faberi (SETFA); assay: Post-emergence herbicidal test; details: 1000 g/ha unless otherwise stated, evaluated after 13 days
Experimental: as §1

[12] = test system: Zea mays (ZEAMX); assay: Post-emergence herbicidal test; details: 1000 g/ha unless otherwise stated, evaluated after 13 days
Experimental: as §1

Structure (SMILES) | percentage damage caused to the plant, five-point scale, AMARE [1] | percentage damage caused to the plant, five-point scale, SETFA [2] | percentage damage caused to the plant, five-point scale, ECHCG [3] | percentage damage caused to the plant, five-point scale, IPOHE [4] | percentage damage caused to the plant, five-point scale, ABUTH [5] | percentage damage caused to the plant, five-point scale, ZEAMX [6] | percentage damage caused to the plant, ABUTH (five-point scale) [7] | percentage damage caused to the plant, AMARE (five-point scale) [8] | percentage damage caused to the plant, ECHCG (five-point scale) [9] | percentage damage caused to the plant, IPOHE (five-point scale) [10] | percentage damage caused to the plant, SETFA (five-point scale) [11] | percentage damage caused to the plant, ZEAMX (five-point scale) [12]
Cc1ccc2c(c1S(C)(=O)=O)c(=O)c(C(=O)O)nn2-c1ccc(OC(F)(F)F)cc1 [Compound P6, 6-methyl-5-methylsulfonyl-4-oxo-1-[4-(trifluoromethoxy)phenyl]cinnoline-3-carboxylic acid] | 1 (1=10-20%) | 4 (4=61-80%) | 3 (3=41-60%) | 1 (1=10-20%) | 2 (2=21-40%) | 1 (1=10-20%) | 1 (1=10-20%) | 2 (2=21-40%) | 4 (4=61-80%) | 1 (1=10-20%) | 3 (3=41-60%) | 1 (1=10-20%)
Cc1cc(S(C)(=O)=O)c2c(=O)c(C(=O)O)nn(-c3ccc(OC(F)(F)F)cc3)c2c1 [Compound P7, 7-methyl-5-methylsulfonyl-4-oxo-1-[4-(trifluoromethoxy)phenyl]cinnoline-3-carboxylic acid] | 1 (1=10-20%) | 4 (4=61-80%) | 4 (4=61-80%) | 1 (1=10-20%) | 1 (1=10-20%) | 1 (1=10-20%) | 1 (1=10-20%) | 1 (1=10-20%) | 4 (4=61-80%) | 2 (2=21-40%) | 4 (4=61-80%) | 2 (2=21-40%)
CCOC(=O)c1nn(-c2ccc(OC(F)(F)F)cc2)c2ccc(C)c(S(C)(=O)=O)c2c1=O [Compound P8, ethyl 6-methyl-5-methylsulfonyl-4-oxo-1-[4-(trifluoromethoxy)phenyl]cinnoline-3-carboxylic acid] | 1 (1=10-20%) | 4 (4=61-80%) | 3 (3=41-60%) | 1 (1=10-20%) | 1 (1=10-20%) | 1 (1=10-20%) | 1 (1=10-20%) | 1 (1=10-20%) | 4 (4=61-80%) | 1 (1=10-20%) | 4 (4=61-80%) | 1 (1=10-20%)
CCOC(=O)c1nn(-c2ccc(OC(F)(F)F)cc2)c2cc(C)cc(S(C)(=O)=O)c2c1=O [Compound P9, ethyl 7-methyl-5-methylsulfonyl-4-oxo-1-[4-(trifluoromethoxy)phenyl]cinnoline-3-carboxylate] | 1 (1=10-20%) | 4 (4=61-80%) | 4 (4=61-80%) | 1 (1=10-20%) | 1 (1=10-20%) | 1 (1=10-20%) | 1 (1=10-20%) | 1 (1=10-20%) | 4 (4=61-80%) | 1 (1=10-20%) | 3 (3=41-60%) | 1 (1=10-20%)
CCOC(=O)c1nn(-c2ccc(OC(F)(F)F)cc2)c2ccc(Br)c(S(C)(=O)=O)c2c1=O [Compound P10, ethyl 6-bromo-5-methysulfonyl-4-oxo-1-[4-(trifluoromethoxy)phenyl]cinnoline-3-carboxylate] | 1 (1=10-20%) | 1 (1=10-20%) | 0 (0=0%) | 0 (0=0%) | 1 (1=10-20%) | 0 (0=0%) | 1 (1=10-20%) | 1 (1=10-20%) | 1 (1=10-20%) | 0 (0=0%) | 1 (1=10-20%) | 1 (1=10-20%)
CCOC(=O)c1nn(-c2ccc(OC(F)(F)F)cc2)c2cc(Br)cc(S(C)(=O)=O)c2c1=O [Compound P11, ethyl 7-bromo-5-methylsulfonyl-4-oxo-1-[4-(trifluoromethoxy)phenyl]cinnoline-3-carboxylate] | 0 (0=0%) | 0 (0=0%) | 0 (0=0%) | 0 (0=0%) | 0 (0=0%) | 0 (0=0%) | 1 (1=10-20%) | 0 (0=0%) | 0 (0=0%) | 0 (0=0%) | 1 (1=10-20%) | 1 (1=10-20%)
CS(=O)(=O)c1c(Br)ccc2c1c(=O)c(C(=O)O)nn2-c1ccc(OC(F)(F)F)cc1 [Compound P12, 6-bromo-5-methylsulfonyl-4-oxo-1-[4-(trifluoromethoxy)phenyl]cinnoline-3-carboxylic acid] | 0 (0=0%) | 4 (4=61-80%) | 1 (1=10-20%) | 0 (0=0%) | 1 (1=10-20%) | 0 (0=0%) | 1 (1=10-20%) | 1 (1=10-20%) | 3 (3=41-60%) | 0 (0=0%) | 3 (3=41-60%) | 1 (1=10-20%)
CS(=O)(=O)c1cc(Br)cc2c1c(=O)c(C(=O)O)nn2-c1ccc(OC(F)(F)F)cc1 [Compound P13, 7-bromo-5-methylsulfonyl-4-oxo-1-[4-(trifluoromethoxy)phenyl]cinnoline-3-carboxylic acid] | 0 (0=0%) | 0 (0=0%) | 0 (0=0%) | 0 (0=0%) | 1 (1=10-20%) | 0 (0=0%) | 0 (0=0%) | 1 (1=10-20%) | 1 (1=10-20%) | 0 (0=0%) | 1 (1=10-20%) | 1 (1=10-20%)
CCOC(=O)c1nn(-c2ccc(OC(F)(F)F)cc2)c2ccc(Br)c(SC)c2c1=O [Compound P53, ethyl 6-bromo-5-methylsulfanyl-4-oxo-1-[4-(trifluoromethoxy)phenyl]cinnoline-3-carboxylate] | 1 (1=10-20%) | 1 (1=10-20%) | 1 (1=10-20%) | 0 (0=0%) | 1 (1=10-20%) |  | 1 (1=10-20%) | 0 (0=0%) | 1 (1=10-20%) | 1 (1=10-20%) | 0 (0=0%) | 0 (0=0%)

Reference: patent US20230250066A1, “HERBICIDAL CINNOLINE DERIVATIVES” (SYNGENTA CROP PROTECTION AG, priority 2020, published 2023)
